Experimental data reported in US20240174622A1, “COMPOUND AND RADIOACTIVE LABELING COMPOUND” (NIHON MEDI-PHYSICS CO., LTD., priority 2021, published 2024).
Several values for one entry are separate records, joined by “and”; a condition that tells them apart may be missing. Equal entries are not always repeated.

Tests used:
[1] = tested on: PC-3 tumor-transplanted mouse; test: Internal radioactivity distribution using PC-3 tumor-transplanted mouse; assay type: in vivo
Experimental: (§1) The animal test was performed in compliance with the guidelines of Kyoto University Animal Experiment Committee. Male CB17/IcrJcl-Prkdc^scid mice were purchased from CLEA Japan, Inc. The animals were kept under 12 h/12 h, day/night cycle conditions and fed ad libitum with food and water. LNCaP cells (1.0×10^7 cells/mouse) or PC-3 cells (1.0×10^7 cells/mouse) were suspended in a mixture of PBS and Matrigel manufactured by Corning Life Sciences (1:1, 150 μL) and the suspension was subcutaneously transplanted to the right shoulder of mice under isoflurane anesthesia. Thereafter, the mice were kept for 40 to 60 days.
LNCaP or PC-3 tumor-implanted mice were administered saline solutions (185 kBq, 100 μL) of [^111In]In-PSMA-DA1 or [^111In]In-PSMA-DB from the tail vein (n=3 each). Mice were euthanized 1, 4, 24, 48, 96, and 192 hours after administration. Thereafter, blood and each organ were recovered, and the mass and radioactivity of the organs were measured.
The percentage (% ID) of the radioactivity amount to the administered radioactivity amount (injected dose) is shown as the value (% ID/g) divided by the blood mass or the organ mass (g).
as §1, with “LNCaP cells (4.3×10^6 cells/mouse) or” for “LNCaP cells (1.0×10^7 cells/mouse) or”, “PC-3 cells (3.3×10^6 cells/mouse) were” for “PC-3 cells (1.0×10^7 cells/mouse) were”, “shoulder of CB17/IcrJcl-Prkdc^scid mice under” for “shoulder of mice under”
Mice were euthanized 1, 4, 24, 48, 96, and 192 hours after administration. Thereafter, blood and each organ were recovered, and the mass and radioactivity of the organs were measured.
The results are shown in Table 13 (Mean value±standard deviation, n=3).

[2] = tested on: LNCaP tumor-transplanted mouse; test: Internal radioactivity distribution using LNCaP tumor-transplanted mouse; assay type: in vivo
Procedure, shortened: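 Biodistribution is given as percent injected dose per gram of tissue, measured in blood and organs harvested at time points from 1 h to 192 h. Radiotracers were given by tail-vein injection in saline at 185–259 kBq, n=2–3. Hosts were male CB17 SCID mice carrying LNCaP or PC-3 tumours implanted s.c. in Matrigel 40–60 days earlier.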

[3] = 24 h after administration, PC-3 tumor-transplanted mice

SMILES: O=C(O)CC[C@H](NC(=O)N[C@@H](CCCCNC(=O)[C@H](Cc1ccc2ccccc2c1)NC(=O)[C@H]1CC[C@H](CNC(=O)CCC(C(=O)O)N2CCN(CC(=O)O)CCN(C(CCC(=O)N[C@@H](CCCCNC(=O)CCCc3ccc(I)cc3)C(=O)O)C(=O)O)CCN(CC(=O)O)CC2)CC1)C(=O)O)C(=O)O (some centres unmarked) [[^111In]In-PSMA-NAT-DA1, metal not drawn]
- Blood [1, 3]: 5.73 ± 1.10 % ID/g
- Brain [1, 3]: 0.22 ± 0.03 % ID/g
- Heart [1, 3]: 2.67 ± 0.58 % ID/g
- Intestine [1, 3]: 0.68 ± 0.07 % ID/g
- Kidney [1, 3]: 27.9 ± 6.05 % ID/g
- Liver [1, 3]: 1.74 ± 0.37 % ID/g
- Lung [1, 3]: 7.41 ± 1.13 % ID/g
- Muscle [1, 3]: 0.83 ± 0.26 % ID/g
- PC-3 Tumor [1, 3]: 3.21 ± 1.00 % ID/g
- Pancreas [1, 3]: 1.25 ± 0.04 % ID/g
- Spleen [1, 3]: 6.94 ± 4.55 % ID/g
- Stomach (% ID) [1, 3]: 0.15 ± 0.03 % ID
- accumulation at the PC-3 tumor compared with the LNCaP tumor at the same time point (in words) ([1]; mouse, in vivo): significantly lower
- Blood ([2]; 1 h after administration): 39.8 ± 2.91 % ID/g
- Brain ([2]; 1 h after administration): 0.63 ± 0.03 % ID/g
- Heart ([2]; 1 h after administration): 10.8 ± 1.31 % ID/g
- Intestine ([2]; 1 h after administration): 3.40 ± 0.24 % ID/g
- Kidney ([2]; 1 h after administration): 41.5 ± 4.27 % ID/g
- LNCaP Tumor ([2]; 1 h after administration): 23.0 ± 2.20 % ID/g
- Liver ([2]; 1 h after administration): 8.24 ± 2.38 % ID/g
- Lung ([2]; 1 h after administration): 28.1 ± 8.65 % ID/g
- Muscle ([2]; 1 h after administration): 2.82 ± 0.55 % ID/g
- Pancreas ([2]; 1 h after administration): 7.32 ± 1.27 % ID/g
- Spleen ([2]; 1 h after administration): 31.2 ± 2.84 % ID/g
- Stomach (% ID) ([2]; 1 h after administration): 0.94 ± 0.35 % ID
- Blood ([2]; 4 h after administration): 38.8 ± 8.25 % ID/g
- Brain ([2]; 4 h after administration): 0.83 ± 0.20 % ID/g
- Heart ([2]; 4 h after administration): 12.2 ± 2.44 % ID/g
- Intestine ([2]; 4 h after administration): 3.47 ± 0.42 % ID/g
- Kidney ([2]; 4 h after administration): 66.2 ± 13.0 % ID/g
- LNCaP Tumor ([2]; 4 h after administration): 43.6 ± 8.49 % ID/g
- Liver ([2]; 4 h after administration): 8.38 ± 2.27 % ID/g
- Lung ([2]; 4 h after administration): 26.5 ± 5.70 % ID/g
- Muscle ([2]; 4 h after administration): 3.69 ± 0.83 % ID/g
- Pancreas ([2]; 4 h after administration): 5.85 ± 1.34 % ID/g
- Spleen ([2]; 4 h after administration): 23.0 ± 3.16 % ID/g
- Stomach (% ID) ([2]; 4 h after administration): 1.32 ± 0.19 % ID
- Blood ([2]; 24 h after administration): 10.9 ± 5.55 % ID/g
- Brain ([2]; 24 h after administration): 0.27 ± 0.13 % ID/g
- Heart ([2]; 24 h after administration): 3.14 ± 1.52 % ID/g
- Intestine ([2]; 24 h after administration): 1.26 ± 0.70 % ID/g
- Kidney ([2]; 24 h after administration): 37.1 ± 19.3 % ID/g
- LNCaP Tumor ([2]; 24 h after administration): 51.9 ± 39.3 % ID/g
- Liver ([2]; 24 h after administration): 2.73 ± 1.08 % ID/g
- Lung ([2]; 24 h after administration): 8.76 ± 4.02 % ID/g
- Muscle ([2]; 24 h after administration): 1.23 ± 0.36 % ID/g
- Spleen ([2]; 24 h after administration): 13.5 ± 8.18 % ID/g
- Stomach (% ID) ([2]; 24 h after administration): 0.28 ± 0.16 % ID
- Blood ([2]; 48 h after administration): 12.3 % ID/g and 12.3 ± 1.56 % ID/g
- Brain ([2]; 48 h after administration): 0.45 ± 0.03 % ID/g
- Heart ([2]; 48 h after administration): 4.68 ± 0.92 % ID/g
- Intestine ([2]; 48 h after administration): 1.39 ± 0.06 % ID/g
- Kidney ([2]; 48 h after administration): 79.0 ± 6.78 % ID/g
- LNCaP Tumor ([2]; 48 h after administration): 131.6 ± 22.0 % ID/g
- Liver ([2]; 48 h after administration): 4.49 ± 0.71 % ID/g
- Lung ([2]; 48 h after administration): 11.1 ± 2.24 % ID/g
- Muscle ([2]; 48 h after administration): 1.48 ± 0.31 % ID/g
- Pancreas ([2]; 48 h after administration): 2.26 ± 0.15 % ID/g
- Spleen ([2]; 48 h after administration): 17.8 ± 1.05 % ID/g
- Stomach (% ID) ([2]; 48 h after administration): 0.44 ± 0.09 % ID
- Blood ([2]; 96 h after administration): 4.07 ± 1.37 % ID/g
- Brain ([2]; 96 h after administration): 0.18 ± 0.04 % ID/g
- Heart ([2]; 96 h after administration): 2.10 ± 0.83 % ID/g
- Intestine ([2]; 96 h after administration): 0.86 ± 0.54 % ID/g
- Kidney ([2]; 96 h after administration): 22.0 ± 14.9 % ID/g
- LNCaP Tumor ([2]; 96 h after administration): 56.2 ± 35.6 % ID/g
- Liver ([2]; 96 h after administration): 2.31 ± 0.89 % ID/g
- Lung ([2]; 96 h after administration): 4.55 ± 2.33 % ID/g
- Muscle ([2]; 96 h after administration): 0.59 ± 0.09 % ID/g
- Pancreas ([2]; 96 h after administration): 2.60 ± 3.18 % ID/g
- Spleen ([2]; 96 h after administration): 6.33 ± 5.25 % ID/g
- Stomach (% ID) ([2]; 96 h after administration): 0.19 ± 0.10 % ID
- Blood ([2]; 192 h after administration): 2.47 ± 0.52 % ID/g
- Heart ([2]; 192 h after administration): 1.19 ± 0.24 % ID/g
- Intestine ([2]; 192 h after administration): 0.55 ± 0.15 % ID/g
- Kidney ([2]; 192 h after administration): 11.9 ± 2.08 % ID/g
- LNCaP Tumor ([2]; 192 h after administration): 35.0 ± 27.3 % ID/g
- Liver ([2]; 192 h after administration): 2.25 ± 0.45 % ID/g
- Lung ([2]; 192 h after administration): 2.81 ± 0.36 % ID/g
- Muscle ([2]; 192 h after administration): 0.33 ± 0.05 % ID/g
- Pancreas ([2]; 192 h after administration): 0.94 ± 0.32 % ID/g
- Spleen ([2]; 192 h after administration): 3.77 ± 0.54 % ID/g
- Stomach (% ID) ([2]; 192 h after administration): 0.12 ± 0.01 % ID
